Earlier results on one compound are cited in EP3807270B1, “NOVEL HETEROARYL HETEROCYCLYL COMPOUNDS FOR THE TREATMENT OF AUTOIMMUNE DISEASE” (F. Hoffmann-La Roche AG, priority 2018, dated 2019).

The target of the data set is T1, hTLR7 (Homo sapiens, UniProt Q9NYK1).
T1 sequence (Q9NYK1 27-1049): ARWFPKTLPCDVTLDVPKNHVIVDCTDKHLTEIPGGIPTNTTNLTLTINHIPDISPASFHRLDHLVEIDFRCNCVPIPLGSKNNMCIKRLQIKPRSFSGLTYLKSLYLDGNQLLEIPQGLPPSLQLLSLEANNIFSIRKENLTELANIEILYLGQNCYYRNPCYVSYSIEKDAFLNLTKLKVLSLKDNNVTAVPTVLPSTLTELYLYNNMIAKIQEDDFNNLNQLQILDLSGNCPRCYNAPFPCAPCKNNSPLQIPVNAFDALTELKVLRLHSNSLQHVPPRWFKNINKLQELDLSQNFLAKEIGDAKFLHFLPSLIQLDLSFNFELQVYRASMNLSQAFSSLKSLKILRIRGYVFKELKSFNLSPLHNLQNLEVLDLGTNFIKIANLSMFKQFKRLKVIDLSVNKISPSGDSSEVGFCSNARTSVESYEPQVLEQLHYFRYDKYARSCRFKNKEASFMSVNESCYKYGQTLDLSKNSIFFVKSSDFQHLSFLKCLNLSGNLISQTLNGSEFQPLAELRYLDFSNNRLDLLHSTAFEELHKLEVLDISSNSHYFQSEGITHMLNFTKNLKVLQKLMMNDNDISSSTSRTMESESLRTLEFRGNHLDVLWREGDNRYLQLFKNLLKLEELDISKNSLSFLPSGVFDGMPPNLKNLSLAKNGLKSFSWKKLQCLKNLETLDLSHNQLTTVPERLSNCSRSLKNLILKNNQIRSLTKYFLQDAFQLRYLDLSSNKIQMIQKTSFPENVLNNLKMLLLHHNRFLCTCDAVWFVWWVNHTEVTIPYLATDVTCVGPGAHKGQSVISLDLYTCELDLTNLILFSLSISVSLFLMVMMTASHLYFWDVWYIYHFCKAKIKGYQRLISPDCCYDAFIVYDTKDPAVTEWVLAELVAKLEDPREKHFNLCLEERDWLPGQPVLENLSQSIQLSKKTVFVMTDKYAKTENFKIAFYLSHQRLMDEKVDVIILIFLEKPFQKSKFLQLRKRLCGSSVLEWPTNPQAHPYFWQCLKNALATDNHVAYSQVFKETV
Details: host or cells: HEK. To be noted: data disclosed in US20150105370; read-out: HEK/hTLR7 IC50; cited from earlier work.

For `C[C@@H]1CN(c2ccc(C#N)c3ncccc23)C[C@H](CN2CCN(c3ccncc3)CC2)O1` [ER-888286, reference compound], the IC50 was 1370 nM.
